± gives the expanded uncertainty stated by the source.
Test: isobaric coefficient of expansion; xn = mol fraction of the nth substance listed
Settings: calorimetric method

CCCCCCO [hexan-1-ol] + CCCCCC
isobaric coefficient of expansion
Settings	5000 kPa	10000 kPa	15000 kPa	20000 kPa	25000 kPa	30000 kPa	35000 kPa	40000 kPa	45000 kPa	50000 kPa
328.15 K, x1 = 0.0321	0.00143 ± 6.1e-05 1/K	0.00135 ± 5.7e-05 1/K	0.00128 ± 5.4e-05 1/K	0.00122 ± 5.2e-05 1/K	0.00117 ± 4.9e-05 1/K	0.00112 ± 4.8e-05 1/K	0.00108 ± 4.6e-05 1/K	0.00104 ± 4.4e-05 1/K	0.00101 ± 4.3e-05 1/K	0.000976 ± 4.1e-05 1/K
328.15 K, x1 = 0.041	0.00143 ± 6.1e-05 1/K	0.00135 ± 5.7e-05 1/K	0.00128 ± 5.4e-05 1/K	0.00122 ± 5.2e-05 1/K	0.00117 ± 4.9e-05 1/K	0.00112 ± 4.8e-05 1/K	0.00108 ± 4.6e-05 1/K	0.00103 ± 4.4e-05 1/K	0.001 ± 4.3e-05 1/K	0.000972 ± 4.1e-05 1/K
328.15 K, x1 = 0.0946	0.00141 ± 6e-05 1/K	0.00133 ± 5.6e-05 1/K	0.00126 ± 5.4e-05 1/K	0.0012 ± 5.1e-05 1/K	0.00116 ± 4.9e-05 1/K	0.00111 ± 4.7e-05 1/K	0.00107 ± 4.5e-05 1/K	0.00103 ± 4.4e-05 1/K	0.001 ± 4.2e-05 1/K	0.000972 ± 4.1e-05 1/K
328.15 K, x1 = 0.1679	0.00136 ± 5.8e-05 1/K	0.0013 ± 5.5e-05 1/K	0.00123 ± 5.2e-05 1/K	0.00118 ± 5e-05 1/K	0.00113 ± 4.8e-05 1/K	0.00109 ± 4.6e-05 1/K	0.00105 ± 4.5e-05 1/K	0.00101 ± 4.3e-05 1/K	0.000982 ± 4.2e-05 1/K	0.000952 ± 4e-05 1/K
328.15 K, x1 = 0.2153	0.00134 ± 5.7e-05 1/K	0.00127 ± 5.4e-05 1/K	0.00121 ± 5.1e-05 1/K	0.00116 ± 4.9e-05 1/K	0.00112 ± 4.7e-05 1/K	0.00107 ± 4.6e-05 1/K	0.00104 ± 4.4e-05 1/K	0.000999 ± 4.2e-05 1/K	0.000971 ± 4.1e-05 1/K	0.000945 ± 4e-05 1/K
328.15 K, x1 = 0.3016	0.00129 ± 5.5e-05 1/K	0.00122 ± 5.2e-05 1/K	0.00117 ± 5e-05 1/K	0.00112 ± 4.7e-05 1/K	0.00108 ± 4.6e-05 1/K	0.00104 ± 4.4e-05 1/K	0.00101 ± 4.3e-05 1/K	0.000975 ± 4.1e-05 1/K	0.000948 ± 4e-05 1/K	0.000922 ± 3.9e-05 1/K
328.15 K, x1 = 0.4075	0.00123 ± 5.2e-05 1/K	0.00117 ± 5e-05 1/K	0.00113 ± 4.8e-05 1/K	0.00108 ± 4.6e-05 1/K	0.00104 ± 4.4e-05 1/K	0.00101 ± 4.3e-05 1/K	0.000977 ± 4.1e-05 1/K	0.000948 ± 4e-05 1/K	0.00092 ± 3.9e-05 1/K	0.000894 ± 3.8e-05 1/K
328.15 K, x1 = 0.503	0.00118 ± 5e-05 1/K	0.00113 ± 4.8e-05 1/K	0.00108 ± 4.6e-05 1/K	0.00104 ± 4.4e-05 1/K	0.00101 ± 4.3e-05 1/K	0.000979 ± 4.2e-05 1/K	0.000952 ± 4e-05 1/K	0.000922 ± 3.9e-05 1/K	0.000899 ± 3.8e-05 1/K	0.000877 ± 3.7e-05 1/K
328.15 K, x1 = 0.594	0.00113 ± 4.8e-05 1/K	0.00108 ± 4.6e-05 1/K	0.00105 ± 4.4e-05 1/K	0.00101 ± 4.3e-05 1/K	0.00098 ± 4.2e-05 1/K	0.000949 ± 4e-05 1/K	0.000921 ± 3.9e-05 1/K	0.000893 ± 3.8e-05 1/K	0.000872 ± 3.7e-05 1/K	0.000851 ± 3.6e-05 1/K
328.15 K, x1 = 0.6827	0.00108 ± 4.6e-05 1/K	0.00104 ± 4.4e-05 1/K	0.00101 ± 4.3e-05 1/K	0.000973 ± 4.1e-05 1/K	0.000945 ± 4e-05 1/K	0.000918 ± 3.9e-05 1/K	0.000891 ± 3.8e-05 1/K	0.000865 ± 3.7e-05 1/K	0.000843 ± 3.6e-05 1/K	0.000823 ± 3.5e-05 1/K
328.15 K, x1 = 0.8013	0.00102 ± 4.3e-05 1/K	0.000985 ± 4.2e-05 1/K	0.000957 ± 4.1e-05 1/K	0.000926 ± 3.9e-05 1/K	0.0009 ± 3.8e-05 1/K	0.000874 ± 3.7e-05 1/K	0.00085 ± 3.6e-05 1/K	0.000825 ± 3.5e-05 1/K	0.000808 ± 3.4e-05 1/K	0.000789 ± 3.3e-05 1/K
328.15 K, x1 = 0.8934	0.000972 ± 4.1e-05 1/K	0.000945 ± 4e-05 1/K	0.000917 ± 3.9e-05 1/K	0.000889 ± 3.8e-05 1/K	0.000869 ± 3.7e-05 1/K	0.000845 ± 3.6e-05 1/K	0.000823 ± 3.5e-05 1/K	0.000802 ± 3.4e-05 1/K	0.000783 ± 3.3e-05 1/K	0.000767 ± 3.3e-05 1/K
328.15 K, x1 = 1	0.000929 ± 3.9e-05 1/K	0.0009 ± 3.8e-05 1/K	0.000876 ± 3.7e-05 1/K	0.000854 ± 3.6e-05 1/K	0.000833 ± 3.5e-05 1/K	0.000813 ± 3.4e-05 1/K	0.000794 ± 3.4e-05 1/K	0.000776 ± 3.3e-05 1/K	0.000759 ± 3.2e-05 1/K	0.000745 ± 3.2e-05 1/K
348.15 K, x1 = 0.0321	0.00153 ± 6.5e-05 1/K	0.00141 ± 6e-05 1/K	0.00133 ± 5.6e-05 1/K	0.00126 ± 5.3e-05 1/K	0.00119 ± 5.1e-05 1/K	0.00114 ± 4.8e-05 1/K	0.00109 ± 4.6e-05 1/K	0.00105 ± 4.4e-05 1/K	0.00101 ± 4.3e-05 1/K	0.00098 ± 4.2e-05 1/K
348.15 K, x1 = 0.041	0.00152 ± 6.5e-05 1/K	0.00142 ± 6e-05 1/K	0.00133 ± 5.6e-05 1/K	0.00126 ± 5.3e-05 1/K	0.0012 ± 5.1e-05 1/K	0.00114 ± 4.8e-05 1/K	0.0011 ± 4.6e-05 1/K	0.00105 ± 4.4e-05 1/K	0.00101 ± 4.3e-05 1/K	0.00098 ± 4.2e-05 1/K
348.15 K, x1 = 0.0946	0.00151 ± 6.4e-05 1/K	0.00141 ± 6e-05 1/K	0.00133 ± 5.6e-05 1/K	0.00126 ± 5.3e-05 1/K	0.00119 ± 5.1e-05 1/K	0.00114 ± 4.9e-05 1/K	0.0011 ± 4.7e-05 1/K	0.00105 ± 4.5e-05 1/K	0.00102 ± 4.3e-05 1/K	0.000988 ± 4.2e-05 1/K
348.15 K, x1 = 0.1679	0.00147 ± 6.2e-05 1/K	0.00138 ± 5.8e-05 1/K	0.0013 ± 5.5e-05 1/K	0.00123 ± 5.2e-05 1/K	0.00118 ± 5e-05 1/K	0.00113 ± 4.8e-05 1/K	0.00108 ± 4.6e-05 1/K	0.00104 ± 4.4e-05 1/K	0.001 ± 4.2e-05 1/K	0.000967 ± 4.1e-05 1/K
348.15 K, x1 = 0.2153	0.00144 ± 6.1e-05 1/K	0.00135 ± 5.7e-05 1/K	0.00128 ± 5.4e-05 1/K	0.00122 ± 5.2e-05 1/K	0.00116 ± 4.9e-05 1/K	0.00111 ± 4.7e-05 1/K	0.00107 ± 4.5e-05 1/K	0.00103 ± 4.4e-05 1/K	0.000999 ± 4.2e-05 1/K	0.000968 ± 4.1e-05 1/K
348.15 K, x1 = 0.3016	0.00138 ± 5.8e-05 1/K	0.0013 ± 5.5e-05 1/K	0.00124 ± 5.2e-05 1/K	0.00118 ± 5e-05 1/K	0.00112 ± 4.8e-05 1/K	0.00108 ± 4.6e-05 1/K	0.00104 ± 4.4e-05 1/K	0.00101 ± 4.3e-05 1/K	0.000976 ± 4.1e-05 1/K	0.000944 ± 4e-05 1/K
348.15 K, x1 = 0.4075	0.00132 ± 5.6e-05 1/K	0.00125 ± 5.3e-05 1/K	0.00119 ± 5e-05 1/K	0.00113 ± 4.8e-05 1/K	0.00109 ± 4.6e-05 1/K	0.00105 ± 4.5e-05 1/K	0.00101 ± 4.3e-05 1/K	0.000981 ± 4.2e-05 1/K	0.00095 ± 4e-05 1/K	0.000924 ± 3.9e-05 1/K
348.15 K, x1 = 0.503	0.00126 ± 5.4e-05 1/K	0.0012 ± 5.1e-05 1/K	0.00114 ± 4.9e-05 1/K	0.0011 ± 4.7e-05 1/K	0.00106 ± 4.5e-05 1/K	0.00102 ± 4.3e-05 1/K	0.000989 ± 4.2e-05 1/K	0.000956 ± 4.1e-05 1/K	0.000929 ± 3.9e-05 1/K	0.000904 ± 3.8e-05 1/K
348.15 K, x1 = 0.594	0.00121 ± 5.1e-05 1/K	0.00115 ± 4.9e-05 1/K	0.0011 ± 4.7e-05 1/K	0.00106 ± 4.5e-05 1/K	0.00102 ± 4.3e-05 1/K	0.000993 ± 4.2e-05 1/K	0.00096 ± 4.1e-05 1/K	0.000928 ± 3.9e-05 1/K	0.000904 ± 3.8e-05 1/K	0.000882 ± 3.7e-05 1/K
348.15 K, x1 = 0.6827	0.00116 ± 4.9e-05 1/K	0.00111 ± 4.7e-05 1/K	0.00107 ± 4.5e-05 1/K	0.00103 ± 4.4e-05 1/K	0.000994 ± 4.2e-05 1/K	0.000963 ± 4.1e-05 1/K	0.000933 ± 4e-05 1/K	0.000903 ± 3.8e-05 1/K	0.000881 ± 3.7e-05 1/K	0.000859 ± 3.6e-05 1/K
348.15 K, x1 = 0.8013	0.00109 ± 4.6e-05 1/K	0.00105 ± 4.4e-05 1/K	0.00101 ± 4.3e-05 1/K	0.000979 ± 4.2e-05 1/K	0.000947 ± 4e-05 1/K	0.00092 ± 3.9e-05 1/K	0.000892 ± 3.8e-05 1/K	0.000866 ± 3.7e-05 1/K	0.000845 ± 3.6e-05 1/K	0.000824 ± 3.5e-05 1/K
348.15 K, x1 = 0.8934	0.00104 ± 4.4e-05 1/K	0.001 ± 4.3e-05 1/K	0.00097 ± 4.1e-05 1/K	0.00094 ± 4e-05 1/K	0.000911 ± 3.9e-05 1/K	0.000886 ± 3.8e-05 1/K	0.000862 ± 3.7e-05 1/K	0.000838 ± 3.6e-05 1/K	0.000817 ± 3.5e-05 1/K	0.000797 ± 3.4e-05 1/K
348.15 K, x1 = 1	0.000995 ± 4.2e-05 1/K	0.00096 ± 4.1e-05 1/K	0.000929 ± 3.9e-05 1/K	0.000903 ± 3.8e-05 1/K	0.000875 ± 3.7e-05 1/K	0.000852 ± 3.6e-05 1/K	0.000831 ± 3.5e-05 1/K	0.000808 ± 3.4e-05 1/K	0.000791 ± 3.4e-05 1/K	0.000772 ± 3.3e-05 1/K
